Measured values taken from PubChem BioAssay AID248 (DTP/NCI, 2004).
Where “and” joins values, the source holds several entries; their conditions need not be identical. Identical values can stand only once. Inconclusive results and toxic doses are left out. Cut-off read from the data, not from the text of the source: active = T/C of 150% or more; inactive = T/C below 125%.

System: L1210 leukemia ip in BDF1 mice, survival T/C
Assay: NCI In Vivo Anticancer Drug Screen. Data for tumor model L1210 Leukemia (intraperitoneal) in B6D2F1 (BDF1) mice
Details: endpoint: mean survival time, higher = longer survival
How it was run: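 Transplantable tumor model; survival measured in treated vs vehicle control mice. Value = treated/control.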

[1] = dose: 100.0 mg/kg/injection, schedule: Q01DX001 (ip), vehicle: carboxymethylcellulose (CMC)
[2] = dose: 200.0 mg/kg/injection, schedule: Q01DX001 (ip), vehicle: carboxymethylcellulose (CMC)
[3] = dose: 400.0 mg/kg/injection, schedule: Q01DX001 (ip), vehicle: carboxymethylcellulose (CMC)
[4] = dose: 100.0 mg/kg/injection, schedule: Q01DX001 (ip), vehicle: saline
[5] = dose: 200.0 mg/kg/injection, schedule: Q01DX001 (ip), vehicle: saline
[6] = dose: 400.0 mg/kg/injection, schedule: Q01DX001 (ip), vehicle: saline
[7] = dose: 100.0 mg/kg/injection, schedule: Q04DX002 (ip), vehicle: saline with Tween-80
[8] = dose: 200.0 mg/kg/injection, schedule: Q04DX002 (ip), vehicle: saline with Tween-80
[9] = dose: 400.0 mg/kg/injection, schedule: Q04DX002 (ip), vehicle: saline with Tween-80
[10] = dose: 100.0 mg/kg/injection, schedule: Q04DX003 (ip), vehicle: saline with Tween-80
[11] = dose: 200.0 mg/kg/injection, schedule: Q04DX003 (ip), vehicle: saline with Tween-80
[12] = dose: 400.0 mg/kg/injection, schedule: Q04DX003 (ip), vehicle: saline with Tween-80
[13] = dose: 50.0 mg/kg/injection, schedule: Q01DX001 (ip), vehicle: saline

Measured: T/C

Cc1ccnc2ccc3ccccc3c12
inactive: dose: 100.0 mg/kg/injection, schedule: Q01DX001 (ip), vehicle: other 101 % of control | dose: 200.0 mg/kg/injection, schedule: Q01DX001 (ip), vehicle: other 107 % of control | dose: 400.0 mg/kg/injection, schedule: Q01DX001 (ip), vehicle: other 113 % of control

Nc1nc(N)c2c(n1)CNC2
inactive: [1] 112 % of control | [2] 112 % of control | [3] 104 % of control

COC(=O)c1ccc(C(=O)OC)[n+]([O-])c1
inactive: dose: 100.0 mg/kg/injection, schedule: Q01DX009 (ip), vehicle: saline 102 % of control | dose: 100.0 mg/kg/injection, schedule: Q04DX003 (ip), vehicle: saline 103 % of control | dose: 200.0 mg/kg/injection, schedule: Q01DX009 (ip), vehicle: saline 106 % of control | dose: 200.0 mg/kg/injection, schedule: Q04DX003 (ip), vehicle: saline 108 % of control | dose: 266.0 mg/kg/injection, schedule: Q04DX003 (ip), vehicle: saline 93 % of control | dose: 400.0 mg/kg/injection, schedule: Q01DX009 (ip), vehicle: saline 106 % of control | dose: 400.0 mg/kg/injection, schedule: Q04DX003 (ip), vehicle: saline 101 % of control | dose: 600.0 mg/kg/injection, schedule: Q04DX003 (ip), vehicle: saline 90 % of control

Cc1coc(NS(=O)(=O)c2ccc(N=Nc3c(N)nc(N)[nH]c3=O)cc2)c1C
inactive: [4] 109 % of control | [5] 102 % of control | [6] 105 % of control

NC(N)=NCCCC(N=Cc1ccccc1O)C(=O)O (stereo not drawn)
inactive: [4] 96 % of control | [5] 102 % of control | [6] 95 % of control

COc1cc(Cn2cccc2/C=N/NC(N)=S)c([N+](=O)[O-])cc1OC
inactive: dose: 25.0 mg/kg/injection, schedule: Q04DX002 (ip), vehicle: Klucel (hydroxypropylcellulose) (HPC) 100 % of control | dose: 50.0 mg/kg/injection, schedule: Q04DX002 (ip), vehicle: Klucel (hydroxypropylcellulose) (HPC) 104 % of control | dose: 100.0 mg/kg/injection, schedule: Q04DX002 (ip), vehicle: Klucel (hydroxypropylcellulose) (HPC) 93 % of control

OCC(O)C(O)C(O)C(O)CNCC(O)C(O)C(O)C(O)CO (stereo not drawn)
inactive: dose: 100.0 mg/kg/injection, schedule: Q04DX002 (ip), vehicle: saline 98 % of control and 91 % of control and 88 % of control | dose: 200.0 mg/kg/injection, schedule: Q04DX002 (ip), vehicle: saline 91 % of control and 100 % of control | dose: 400.0 mg/kg/injection, schedule: Q04DX002 (ip), vehicle: saline 91 % of control and 107 % of control and 95 % of control

Cc1ccc2cc3c4ccccc4ccc3[n+](C)c2c1
inactive: dose: 75.0 mg/kg/injection, schedule: Q01DX001 (ip), vehicle: carboxymethylcellulose (CMC) 100 % of control | dose: 150.0 mg/kg/injection, schedule: Q01DX001 (ip), vehicle: carboxymethylcellulose (CMC) 100 % of control | dose: 300.0 mg/kg/injection, schedule: Q01DX001 (ip), vehicle: carboxymethylcellulose (CMC) 102 % of control

CCN(CC)S(=O)(=O)NC1C(=O)N(c2ccccc2)N(C)C1C (stereo not drawn)
inactive: [7] 104 % of control | [8] 101 % of control | [9] 104 % of control

CC(O)(C(=O)O)C(O)C(O)CO (stereo not drawn)
inactive: [7] 100 % of control | [8] 88 % of control | [9] 100 % of control

CC(=O)OCC[N+](C)(C)CCCCCCCCCC[N+](C)(C)CCOC(C)=O
inactive: dose: 3.0 mg/kg/injection, schedule: Q01DX009 (ip), vehicle: saline 100 % of control | dose: 6.25 mg/kg/injection, schedule: Q01DX009 (ip), vehicle: saline 89 % of control | dose: 12.5 mg/kg/injection, schedule: Q01DX009 (ip), vehicle: Klucel (hydroxypropylcellulose) (HPC) 97 % of control

C[N+]1(CC2CO2)CCOCC1 (stereo not drawn)
inactive: dose: 75.0 mg/kg/injection, schedule: Q01DX001 (ip), vehicle: saline 109 % of control | dose: 150.0 mg/kg/injection, schedule: Q01DX001 (ip), vehicle: saline 106 % of control | dose: 300.0 mg/kg/injection, schedule: Q01DX001 (ip), vehicle: saline 96 % of control

CC1(C)CC(N=Cc2ccccc2O)CC(C)(C)N1O.CC1(C)CC(N=Cc2ccccc2O)CC(C)(C)N1O.[Pd]
inactive: [10] 88 % of control | [11] 90 % of control | [12] 88 % of control

c1ccc(-c2n[nH]c(-c3ccccc3)c2-c2ccccc2)cc1
inactive: [10] 92 % of control | [11] 100 % of control | [12] 95 % of control

CCC1(C(C)C)SC(N)=NC1=O (stereo not drawn)
inactive: [1] 102 % of control | [2] 94 % of control | [3] 96 % of control

CCOC(=O)c1ncc(Cl)cc1N
inactive: dose: 100.0 mg/kg/injection, schedule: Q01DX001 (ip), vehicle: Klucel (hydroxypropylcellulose) (HPC) 106 % of control | dose: 200.0 mg/kg/injection, schedule: Q01DX001 (ip), vehicle: Klucel (hydroxypropylcellulose) (HPC) 108 % of control

CCOC(=O)C(CC1CC(=O)Nc2ccccc21)C(=O)OCC (stereo not drawn)
inactive: [4] 95 % of control | [5] 97 % of control | [6] 101 % of control

CCP(CC)c1cccc(OC(=O)NC)c1
inactive: dose: 5.0 mg/kg/injection, schedule: Q01DX001 (ip), vehicle: saline 110 % of control | dose: 10.0 mg/kg/injection, schedule: Q01DX001 (ip), vehicle: saline 104 % of control | dose: 20.0 mg/kg/injection, schedule: Q01DX001 (ip), vehicle: saline 107 % of control

O=C1N(CCO)CNC1(c1ccccc1)c1ccccc1
inactive: dose: 100.0 mg/kg/injection, schedule: Q01DX001 (ip), vehicle: saline with Tween-80 102 % of control | dose: 200.0 mg/kg/injection, schedule: Q01DX001 (ip), vehicle: saline with Tween-80 98 % of control

CN(C)C(c1ccccc1)c1ccccc1
inactive: [13] 96 % of control | [4] 94 % of control | [5] 94 % of control | [6] 94 % of control

N/N=C\C=N\N
inactive: dose: 15.0 mg/kg/injection, schedule: Q01DX Z (ip), vehicle: saline 107 % of control | dose: 30.0 mg/kg/injection, schedule: Q01DX Z (ip), vehicle: saline 107 % of control | dose: 60.0 mg/kg/injection, schedule: Q01DX Z (ip), vehicle: saline 107 % of control

O=c1ccc2c([N+](=O)[O-])cc([N+](=O)[O-])c(O)c2[nH]1
inactive: [4] 101 % of control | [5] 101 % of control

C[C@@H]1C[C@](O)([C@@H](C)Cl)C(=O)O[C@@H]2CCN3CC=C(COC(=O)[C@]1(C)O)[C@H]23
inactive: dose: 3.0 mg/kg/injection, schedule: Q01DX Z (ip), vehicle: saline 107 % of control | dose: 6.0 mg/kg/injection, schedule: Q01DX Z (ip), vehicle: saline 103 % of control | dose: 12.0 mg/kg/injection, schedule: Q01DX Z (ip), vehicle: saline 100 % of control | dose: 24.0 mg/kg/injection, schedule: Q01DX Z (ip), vehicle: saline 103 % of control

CC(=O)Oc1cc(O)c2c(c1)OC(C)(C)CC2=O
inactive: dose: 100.0 mg/kg/injection, schedule: Q01DX009 (ip), vehicle: Klucel (hydroxypropylcellulose) (HPC) 98 % of control | dose: 100.0 mg/kg/injection, schedule: Q04DX003 (ip), vehicle: Klucel (hydroxypropylcellulose) (HPC) 93 % of control | dose: 200.0 mg/kg/injection, schedule: Q01DX009 (ip), vehicle: Klucel (hydroxypropylcellulose) (HPC) 98 % of control | dose: 200.0 mg/kg/injection, schedule: Q04DX003 (ip), vehicle: Klucel (hydroxypropylcellulose) (HPC) 100 % of control | dose: 400.0 mg/kg/injection, schedule: Q01DX009 (ip), vehicle: Klucel (hydroxypropylcellulose) (HPC) 96 % of control | dose: 400.0 mg/kg/injection, schedule: Q04DX003 (ip), vehicle: Klucel (hydroxypropylcellulose) (HPC) 97 % of control

CCC(C)C(C)CO (stereo not drawn)
inactive: [13] 108 % of control | [4] 100 % of control | [5] 88 % of control

CCNS(=O)(=O)c1ncnc2nc[nH]c12
inactive: dose: 44.0 mg/kg/injection, schedule: Q01DX Z (ip), vehicle: carboxymethylcellulose (CMC) 117 % of control | dose: 44.0 mg/kg/injection, schedule: Q01DX Z (ip), vehicle: methylcellulose (MC) 98 % of control | dose: 66.0 mg/kg/injection, schedule: Q01DX Z (ip), vehicle: carboxymethylcellulose (CMC) 123 % of control | dose: 66.0 mg/kg/injection, schedule: Q01DX Z (ip), vehicle: methylcellulose (MC) 102 % of control | dose: 100.0 mg/kg/injection, schedule: Q01DX Z (ip), vehicle: methylcellulose (MC) 106 % of control | dose: 150.0 mg/kg/injection, schedule: Q01DX Z (ip), vehicle: methylcellulose (MC) 102 % of control
